Data taken from US8822510B2, “Substituted 3-phenyl-1,2,4-Oxadiazole compounds” (Bristol-Myers Squibb Company, priority 2010, dated 2014).

Tested on: circulating lymphocytes
Assay: Blood Lymphocyte Reduction Assay (BLR) in Rodents
Type: in vivo
Details: Lewis rats, oral, vs vehicle group
Protocol: Lewis rats were dosed orally with test article (as a solution or suspension in the vehicle) or vehicle alone (polyethylene glycol 300, “PEG300”). Blood was drawn at 4 hr and 24 h by retro-orbital bleeding. Blood lymphocyte counts were determined on an ADVIA 120 Hematology Analyzer (Siemens Healthcare Diagnostics). The results were measured as a reduction in the percentage of circulating lymphocytes as compared to the vehicle treated group at the 4 hr and 24 hr measurement. The results represent the average results of all animals within each treatment group (n=3-4).
The following examples were tested in the Blood Lymphocyte Reduction assay (BLR) described hereinabove and the results are shown in Table C for rats.

Compound | % REDUCTION IN LYMPHOCYTES AT 4 HR. (10.0 mg/kg) [%] | % REDUCTION IN LYMPHOCYTES AT 4 HR. (20.0 mg/kg) [%]
CC(C)(CCCc1nc(-c2ccc(CN3CC(C(=O)O)C3)cc2)no1)c1ccc(F)cc1 [Example 128, 1-(4-(5-(4-(4-fluorophenyl)-4-methylpentyl)-1,2,4-oxadiazol-3-yl)benzyl)-3-azetidinecarboxylic acid] | 80 | 
O=C(O)C[C@@H]1CC(c2ccc(-c3noc(CCC4(c5ccccc5)CCCCC4)n3)cc2)=NO1 [Example 133, (S)-(3-(4-(5-(2-(1-phenylcyclohexyl)ethyl)-1,2,4-oxadiazol-3-yl)phenyl)-4,5-dihydro-5-isoxazolyl)acetic acid] |  | 84
